Like-named read-outs stand apart in the source and are kept apart here.
Key:
[1] = molecular target: T1, B. subtilis DAPA aminotransferase (Bacillus subtilis, UniProt P53555); format: biochemical; conditions: for DAPA aminotransferase specfic activity: compound added to extract of BI611; for function as amino donor with the B. subtilis enzyme / stimulation of DAPA aminotransferase activity: result in words; for stimulation of DAPA aminotransferase activity: dialyzed BI611 extract
T1 construct: A cell free extract prepared from a B. subtilis strain deleted for the bio operon but containing multiple copies (4-6) of the B. subtilis bioA gene; made in house; host or cells: B. subtilis BI611 (Δbio:cat, bpr:[P26bioA]4-6), cell-free extract (dialyzed for A1, crude for A2)
T1 sequence (P53555 1-448): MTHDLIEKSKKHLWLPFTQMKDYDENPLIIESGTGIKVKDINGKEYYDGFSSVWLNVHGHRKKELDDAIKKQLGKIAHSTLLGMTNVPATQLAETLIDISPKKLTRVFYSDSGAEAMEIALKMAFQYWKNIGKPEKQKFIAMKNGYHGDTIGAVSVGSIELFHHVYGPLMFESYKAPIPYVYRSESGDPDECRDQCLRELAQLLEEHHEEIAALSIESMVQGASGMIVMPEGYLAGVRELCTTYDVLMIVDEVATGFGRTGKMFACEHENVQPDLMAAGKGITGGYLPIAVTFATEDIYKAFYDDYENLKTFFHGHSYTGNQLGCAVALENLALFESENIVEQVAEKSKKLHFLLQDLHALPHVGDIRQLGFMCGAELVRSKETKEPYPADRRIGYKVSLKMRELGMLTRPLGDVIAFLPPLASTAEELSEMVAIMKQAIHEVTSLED
Procedure: The assay for DAPA aminotransferase is described by Eisenberg and Stoner in 1971 (J. Bacteriol. 108:1135-1140). In this assay, the substrate KAPA is incubated with S-adenosylmethionine (SAM) in the presence of the cofactor pyridoxal 5′-phosphate and cell extract. We measured the amount of DAPA produced in a plate bioassay utilizing an E. coli bioA strain. Streptavidin (8 μg/ml) was added to the assay mix because extracts of many of the strains to be assayed contained significant amounts of biotin and dethiobiotin which fed the E. coli indicator strain used in the bioassay. Contamination by trace amounts of biotin and dethiobiotin was also removed from the KAPA preparation used as substrate by passing the material over an avidin-agarose column. The E. coli bioA109 strain (MEC1) was used to measure DAPA aminotransferase activity in the bioassay. […] Eisenberg's DAPA-sensitive strain was obtained from the E. coli Genetic Stock Center at Yale University.
To determine whether B. subtilis DAPA aminotransferase activity could be stimulated by addition of other amino donors to the reaction mix, various amino donors were screened for their ability to stimulate enzyme activity in vitro. A cell free extract prepared from a B. subtilis strain deleted for the bio operon but containing multiple copies (4-6) of the B. subtilis bioA gene transcribed from a phage SP01-26 promoter with the cassette integrated at the bpr locus, BI611 (Δbio:cat, bpr:[P26bioA]4-6), was dialyzed to remove any endogenous levels of the amino donor and the extract was assayed in the presence of each of the standard amino acids and several other amine compounds. […] In a subsequent experiment, various lysine derivatives and analogs were tested for stimulation of activity (Table 2). […] The structure of (S)-2-aminoethyl-L-cysteine is identical to L-lysine except that the γ carbon has been replaced by a sulfur atom.

[2] = molecular target: T1, B. subtilis DAPA aminotransferase; experiment: Kinetic studies of B. subtilis DAPA aminotransferase (crude cell-free extract of BI611); format: biochemical; conditions: for Km: crude cell-free extract of BI611
Procedure: (§1) The assay for DAPA aminotransferase is described by Eisenberg and Stoner in 1971 (J. Bacteriol. 108:1135-1140). In this assay, the substrate KAPA is incubated with S-adenosylmethionine (SAM) in the presence of the cofactor pyridoxal 5′-phosphate and cell extract. We measured the amount of DAPA produced in a plate bioassay utilizing an E. coli bioA strain. Streptavidin (8 μg/ml) was added to the assay mix because extracts of many of the strains to be assayed contained significant amounts of biotin and dethiobiotin which fed the E. coli indicator strain used in the bioassay. Contamination by trace amounts of biotin and dethiobiotin was also removed from the KAPA preparation used as substrate by passing the material over an avidin-agarose column. The E. coli bioA109 strain (MEC1) was used to measure DAPA aminotransferase activity in the bioassay. This E.coli bioA strain, developed for the assay by Eisenberg, was reported to be many times more sensitive to DAPA than any other bioA mutant. Eisenberg's DAPA-sensitive strain was obtained from the E. coli Genetic Stock Center at Yale University.
The kinetic properties of B. subtilis DAPA aminotransferase were investigated using a crude cell-free extract prepared from BI611 (Δbio:cat, bpr:[P26bioA]4-6). […] The conversion of substrate to product was approximately 10 to 40% in 20 minutes. […] The pH optimum for the transamination reaction was determined to be pH 8.6. […] The […] enzyme was subject to inhibition by KAPA at levels above 20 μM. […] The enzyme became saturated for lysine at concentrations between 20 and 40 mM.
The substrate inhibition of B. subtilis DAPA aminotransferase by KAPA provides evidence for a double displacement or ping-pong reaction mechanism, as has been shown for E.coli DAPA aminotransferase (Stoner et al., J. Biol. Chem. 250:4037-4043, 1975). KAPA concentration was varied at four different fixed lysine concentrations, and initial velocity data was collected and plotted in a double reciprocal form. […]

[3] = molecular target: T2, E. coli DAPA aminotransferase (Escherichia coli, UniProt P12995); conditions: cited from earlier work; for Km: Stoner and Eisenberg 1975
[4] = molecular target: T1, B. subtilis DAPA aminotransferase; experiment: DAPA aminotransferase assay of BI282 extract, dependence on SAM; format: biochemical
Procedure: as §1
A B. subtilis strain, BI282, engineered to overexpress B. subtilis BioA protein was assayed for DAPA aminotransferase activity: BI282 contains a P15 bio cassette amplified at the bio locus (described in Patent Application 0635572A2). […]

[5] = molecular target: T2, E. coli DAPA aminotransferase; experiment: DAPA aminotransferase assay of extracts of B. subtilis strains containing E. coli bioA; format: biochemical; conditions: strains lacking native bioA, with E. coli bioA
Procedure: as §1
(§2) The enzyme reaction was approximately linear with time for at least 60 minutes. […] Enzyme activity was destroyed by boiling the extract, or freezing and thawing, although freezing the extract in the presence of 10% DMSO appeared to stabilize the enzyme. […]

[6] = molecular target: T3, S. marcescens DAPA aminotransferase (Serratia marcescens, UniProt P36568); experiment: DAPA aminotransferase assay of extracts of B. subtilis strains containing S. marcescens bioA; format: biochemical; conditions: strains lacking native bioA, with S. marcescens bioA
T3 construct: made in house; host or cells: B. subtilis strain lacking the native bioA gene, carrying S. marcescens bioA; cell extract
Procedure: as §1, §2

[7] = test system: B. subtilis strains, PY79, BI282, and BI603; experiment: Sensitivity of B. subtilis strains to lysine analogs on minimal medium; format: cell-based; conditions: minimal medium with no additive, with threonine, or with DAP plus threonine
Procedure: Three out of the four classical cases of lysine deregulated mutants were isolated by selecting for lysine analog resistance. B. subtilis strains, PY79 (Youngman et al., Plasmid 12:1-9, 1984), BI282, and BI603 were tested for sensitivity to four lysine analogs, on minimal medium with no additive, with threonine, or with DAP plus threonine. The purpose of the additives was to focus the selection on the lysC gene, that encodes the lysine sensitive aspartokinase II. […] All three strains behaved similarly; all were sensitive to AEC in all three media.

T2 sequence (P12995 whole entry): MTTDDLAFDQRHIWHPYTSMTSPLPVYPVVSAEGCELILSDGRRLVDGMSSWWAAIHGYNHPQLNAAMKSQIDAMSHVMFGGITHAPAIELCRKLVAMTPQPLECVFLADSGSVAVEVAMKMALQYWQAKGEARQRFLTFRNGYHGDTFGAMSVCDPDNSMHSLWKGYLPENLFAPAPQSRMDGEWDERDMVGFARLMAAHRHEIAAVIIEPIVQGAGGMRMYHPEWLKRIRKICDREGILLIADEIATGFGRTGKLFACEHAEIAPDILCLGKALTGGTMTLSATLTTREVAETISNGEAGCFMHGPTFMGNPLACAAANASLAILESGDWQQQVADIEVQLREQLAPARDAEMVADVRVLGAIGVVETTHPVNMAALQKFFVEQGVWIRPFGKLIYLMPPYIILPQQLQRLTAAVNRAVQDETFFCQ
T3 sequence (P36568 whole entry): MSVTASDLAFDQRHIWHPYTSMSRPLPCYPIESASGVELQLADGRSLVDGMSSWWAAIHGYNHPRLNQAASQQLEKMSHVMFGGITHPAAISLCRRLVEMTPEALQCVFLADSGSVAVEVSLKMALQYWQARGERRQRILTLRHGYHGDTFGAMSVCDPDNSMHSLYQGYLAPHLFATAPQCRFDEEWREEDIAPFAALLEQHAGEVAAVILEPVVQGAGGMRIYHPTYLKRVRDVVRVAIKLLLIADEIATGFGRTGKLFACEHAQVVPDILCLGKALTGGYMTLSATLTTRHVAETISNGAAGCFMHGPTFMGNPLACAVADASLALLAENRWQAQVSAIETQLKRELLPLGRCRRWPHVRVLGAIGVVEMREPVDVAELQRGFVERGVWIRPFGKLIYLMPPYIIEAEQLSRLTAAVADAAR

NCCCCC(N)C(=O)O (racemic) [DL-lysine (>98%), DL-lysine]
DAPA aminotransferase specfic activity [1]: 0.35 nmol/min/mg

NCCCC[C@@H](N)C(=O)O [D-lysine]
DAPA aminotransferase specfic activity [1]: 0.19 nmol/min/mg | function as amino donor with the B. subtilis enzyme [1]: function as amino donors

CC(N)C(=O)CCCCCC(=O)O (stereo not shown) [KAPA, 8-amino-7-ketopelargonic acid]
Km ([2]; read-out: apparent Km for KAPA): 1 to 5 µM | KAPA concentration above which inhibition of activity was observed ([2]; lysine constant at 19 mM): above 80 μM | KAPA level above which enzyme was subject to inhibition ([3]; Eisenberg and Stoner 1971): above 20 μM | Km ([3]; read-out: Km for KAPA): 1.2 µM

NCCCC[C@H](N)C(=O)O [L-lysine]
DAPA aminotransferase specfic activity ([1]; listed as L-lysine (>98%)): 0.76 nmol/min/mg | DAPA aminotransferase specfic activity ([1]; listed as L-lysine (>99%)): 0.56 nmol/min/mg | function as amino donor with the B. subtilis enzyme [1]: function as amino donors | stimulation of DAPA aminotransferase activity ([1]; listed as L-lysine hydrochloride): stimulated DAPA aminotransferase activity | stimulation of DAPA aminotransferase activity ([1]; listed as L-lysine(>99% pure)): stimulate activity | Km ([2]; read-out: apparent Km for lysine): 2000 to 25000 µM

CC(=O)N[C@@H](CCCCN)C(=O)O [Nα-acetyl-L-lysine]
DAPA aminotransferase specfic activity [1]: 0 nmol/min/mg

CC(=O)NCCCC[C@H](N)C(=O)O [Nε-acetyl-L-lysine]
DAPA aminotransferase specfic activity [1]: 0 nmol/min/mg

CNCCCC[C@H](N)C(=O)O [Nε-methyl-L-lysine]
DAPA aminotransferase specfic activity [1]: 0 nmol/min/mg

C[S+](CC[C@H](N)C(=O)O)C[C@H]1O[C@@H](n2cnc3c(N)ncnc32)[C@H](O)[C@@H]1O (stereo partly shown) [SAM, S-adenosylmethionine]
function as amino donor with the B. subtilis enzyme [1]: not a significant amino donor | dependence of enzyme activity on presence of SAM [4]: not dependent on the presence of SAM | dependence of enzyme activity on presence of SAM [5]: dependent on the presence of exogenous SAM | dependence of enzyme activity on presence of SAM [6]: dependent on the presence of exogenous SAM | Km ([3]; purified E. coli enzyme, read-out: Km for SAM): 200 µM

N[C@H](CCC[C@H](N)C(=O)O)C(=O)O [diaminopimelic acid]
DAPA aminotransferase specfic activity [1]: 0 nmol/min/mg

(S)-2-aminoethyl-L-cysteine
DAPA aminotransferase specfic activity [1]: 0.48 nmol/min/mg | function as amino donor with the B. subtilis enzyme [1]: function as amino donors | stimulation of DAPA aminotransferase activity [1]: stimulate activity | inhibition of growth [7]: inhibited growth

gly-lys
DAPA aminotransferase specfic activity [1]: 0 nmol/min/mg

lys-gly
DAPA aminotransferase specfic activity [1]: 0 nmol/min/mg

Source: US6737256B2, “Overcoming DAPA aminotransferase bottlenecks in biotin vitamers biosynthesis” (Roche Vitamins Inc., priority 1997, dated 2004)
